Columns and labels:
MDAMB-231 = assay: MTT cell growth assay, MDAMB-231; type: cell-based; conditions: Homo sapiens, MDA-MB-231, 48 or 72 h, read-out: Cell line inhibition of growth GI50 MDAMB-231
Procedure: (§1) To probe further the effect of compound 2 and related compounds 1, 3, 5, 6 and 7, various concentrations of these compounds were added to 13 different cell lines and incubated for 48 or 72 h. An MTT assay was then performed to evaluate cell growth and survival.

CCRF-CEM = assay: MTT cell growth assay, CCRF-CEM; type: cell-based; conditions: Homo sapiens, 48 or 72 h, read-out: Cell line inhibition of growth GI50 CCRF-CEM
Procedure: as §1

RPMI8226 = assay: MTT cell growth assay, RPMI8226; type: cell-based; conditions: Homo sapiens, RPMI-8226, 48 or 72 h, read-out: Cell line inhibition of growth GI50 RPMI8226
Procedure: as §1

Human 26S proteasome = assay: Hydrolysis of fluorogenic proteasome substrate LLVY-AMC by purified 26S proteasome; type: biochemical; conditions: 19 nM 26S proteasome, 30 min preincubation, 60 μM LLVY-AMC
Procedure: Purified human 26S proteasome (19 nM) was incubated with either DMSO, MG132 or compound 2 for 30 min at room temperature and fluorogenic proteasome substrate LLVY-AMC (60 μM) was added to initiate the reaction. Fluorescence intensity was monitored every 3 min over 30 min.

MRC5-SV40 = assay: CellTiter-Glo growth inhibition, MRC5 cells engineered to express SV40; type: cell-based
PC3 = assay: MTT cell growth assay, PC3; type: cell-based; conditions: Homo sapiens, PC-3, 48 or 72 h, read-out: Cell line inhibition of growth GI50 PC3
Procedure: as §1

C522A-mp97 = molecular target: T1, C522A-mp97 (Mus musculus, UniProt Q01853, C522A); assay: In vitro ATP hydrolysis, C522A-mp97 mutant; type: biochemical, murine
T1 construct: made in house
Procedure: Compounds were tested for their ability to inhibit the ATPase activity of purified wild type murine p97 and T532C-Cdc48, a mutant of yeast Cdc48 in which the residue analogous to cysteine 522, threonine 532, was converted to cysteine.
To determine whether cysteine 522 is necessary for inhibition of p97 by compound 2, a mutant of p97 was constructed in which cysteine 522 was converted to either alanine (C522A-mp97) or threonine (C522T-mp97). The IC50 values of compound 2 were measured the against various enzymes during a 20-minute preincubation (see Table 2). Mutation of cysteine 522 in p97 to either alanine or threonine decreased sensitivity to compound 2 by greater than 100-fold. On the other hand, yeast Cdc48, which normally is quite resistant to compound 2, became nearly 30-fold more sensitive to the compound upon introduction of a cysteine in place of threonine 532.

T1 sequence (Q01853 whole entry C522A): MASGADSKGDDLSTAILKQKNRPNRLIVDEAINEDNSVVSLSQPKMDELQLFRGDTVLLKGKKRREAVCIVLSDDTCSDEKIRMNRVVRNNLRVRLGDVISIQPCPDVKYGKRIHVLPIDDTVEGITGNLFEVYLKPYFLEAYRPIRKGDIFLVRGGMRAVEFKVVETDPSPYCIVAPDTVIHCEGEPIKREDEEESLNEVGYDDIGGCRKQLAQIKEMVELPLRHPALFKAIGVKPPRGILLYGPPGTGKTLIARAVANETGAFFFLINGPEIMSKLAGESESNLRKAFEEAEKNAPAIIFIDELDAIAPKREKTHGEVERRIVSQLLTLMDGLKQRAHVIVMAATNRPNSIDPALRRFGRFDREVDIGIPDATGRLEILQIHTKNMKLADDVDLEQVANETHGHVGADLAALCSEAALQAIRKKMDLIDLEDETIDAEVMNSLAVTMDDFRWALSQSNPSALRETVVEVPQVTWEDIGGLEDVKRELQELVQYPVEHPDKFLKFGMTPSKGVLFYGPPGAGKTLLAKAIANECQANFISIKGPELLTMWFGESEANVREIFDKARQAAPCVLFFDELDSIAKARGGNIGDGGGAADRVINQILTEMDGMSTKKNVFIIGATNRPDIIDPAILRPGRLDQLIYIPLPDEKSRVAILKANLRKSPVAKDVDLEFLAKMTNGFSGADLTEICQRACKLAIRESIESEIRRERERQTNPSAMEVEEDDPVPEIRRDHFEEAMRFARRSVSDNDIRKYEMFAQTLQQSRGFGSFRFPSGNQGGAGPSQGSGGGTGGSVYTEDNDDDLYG

C=CC(=O)Nc1ncnc2c1c(-c1ccccc1)nn2C(C)(C)C [Compound 2]
GI50 (MDAMB-231): 1700 ± 300 nM | GI50 (CCRF-CEM): 1600 ± 800 nM | GI50 (RPMI8226): 400 ± 100 nM | inhibition of hydrolysis of proteasome substrate LLVY-AMC (Human 26S proteasome): does not inhibit hydrolysis | GI50 (MRC5-SV40; Homo sapiens, MRC5, 48 h at 37° C., CellTiter-Glo, read-out: Cell line inhibition of growth GI50 MRC5-SV40): 7300 ± 5500 nM | greater sensitivity of SV40-transformed cells than WT cell line (MRC5-SV40; MRC5-SV40 vs MRC5-WT GI50): 2 fold | GI50 (PC3): 2200 ± 1100 nM | IC50 (C522A-mp97; 20-minute preincubation): 110000 ± 33000 nM | decrease in sensitivity on mutation of cysteine 522 in p97 to alanine or threonine (C522A-mp97; C522A or C522T vs wild type p97): greater than 100 fold
